The test is described as follows: Channel-mediated glucose efflux from glucose entrapped unilamellar vesicles, enzyme coupled NADPH assay. In kind it is biochemical. As to conditions: for apparent rate constant of glucose transport: 27° C. An excerpt: FIG. 28 illustrates a schematic illustration of channel-mediated glucose transport and the enzyme coupled assay used to monitor the transport activity with respect to the channel structure indicated in FIGS. 27A-B. Formation of a transmembrane pore structure(s) initiates glucose efflux from the liposome which can be directly monitored by measuring the rate of NADPH production. The enzymes and cofactors employed are hydrophilic and thus can not pass through the lipid membrane and are too large to penetrate the channel structure. Therefore, only the released glucose can undergo the enzymatic reaction.
FIG. 29 illustrates the ensuing glucose efflux on the addition of various amounts of the channel forming peptide of FIGS. 27A-B, viz., open circles represent 15.0×10^−6 M; closed circles represent 11.0×10^−6 M; open triangles represent 7.5×10^−6 M; closed triangles represent 5.6×10^−6 M; and open diamonds represent 3.8×10^−6 M. Efflux is expressed in terms of the amount of glucose released as a function of time (sampled at 90 sec intervals). The large unilamellar vesicles used in this study contained 200 mM D-glucose. All curves are background corrected to remove any contribution from the nonspecific glucose leakage from the liposomes.
Glucose transport activity was studied in isotonic solutions using glucose entrapped unilamellar lipid vesicles. Unilamellar vesicles, ˜150 nm in diameter, were prepared by the reverse-phase evaporation method using 1,2-dipalmitoyl-Sn-glycero-3-phosphatidylcholine (DPPC) 1-palmitoyl-2-oleoyl-Sn-glycero-3-phosphatidylcholine (POPC) 1-palmitoyl-2-oleoyl-Sn-glycero-3-phosphatidylserine (POPS), and cholesterol in the ratio 1:1:0.1:1 in a solution containing 50, 100, 150, or 200 mM D-glucose, 100 mM NaCl, and 50 mM Tris buffer pH 7.5, according to the method of F. Szoka et al. in Proc. Natl. Acad. Sci. USA (1978), vol. 75, pages 4194-4198. Liposomes were gel-filtered using Sephadex G-25 in an isotonic buffer containing 50, 100, 150, or 200 mM sucrose, 100 mM NaCl, and 50 mM Tris buffer pH 7.5. The liposome preparation was stored at 4° C. and used within 24 hours of the synthesis. The transport phenomenon was monitored spectrophotometrically at 340 nm for the production of NADPH using an enzyme coupled assay (FIG. 28), according to the method of S. C. Kinsky in Methods in Enzymology; Fleischer, S., Packer, L., Eds; Academic Press: London, 1974; vol. 32, pp 501-513. All experiments were performed on a Spectronic-3000 photodiode-array spectrophotometer using 3 ml quartz cuvettes placed in the thermojacketed multiple cell holder and held at 27° C. In a typical experiment the following solutions were sequentially placed in the cuvettes: 750 ml of buffer (300 mM NaCl, 50 mM Tris pH 7.5, 3.5 mM MgCl2, and 0.15 mM CaCl2), 500 ml of the enzyme solution (8 units.ml^−1 of hexokinase, 16 units.ml^−1 of glucose-6-phosphate dehydrogenase, 2.5 mM ATP, 1.3 mM NADP all dissolved in 200 mM NaCl, 50 mM Tris pH 7.5, 3.5 mM MgCl2, and 0.15 mM CaCl2), and 75 ml of the stock liposome solution^8 (2.6×10^−3 M in phospholipids). Total glucose content in each cuvette was determined by Triton X-100 treatment. Transport was initiated by the addition of an appropriate amount (5, 7.5, 10, 15, or 20 ml) of the peptide solution (1 mM in DMF) to the reference and the sample cuvettes (hexokinase was omitted from the reference sample). […] The production of NADPH was monitored at 340 nm for 1.5 h at 90 second time intervals. […]

Square brackets hold non-standard residues; d marks the D form.

This is an account of results in patent US6613875B1, “Cyclic peptide tube” (The Scripps Research Institute, priority 1993, dated 2003).

Regarding “cyclo[-Gln-(D-Leu-Trp)4-D-Leu-] (cyclo(Q[dL]W[dL]W[dL]W[dL]W[dL]); SMILES CC(C)C[C@H]1NC(=O)[C@H](CCC(N)=O)NC(=O)[C@@H](CC(C)C)NC(=O)[C@H](Cc2c[nH]c3ccccc23)NC(=O)[C@@H](CC(C)C)NC(=O)[C@H](Cc2c[nH]c3ccccc23)NC(=O)[C@@H](CC(C)C)NC(=O)[C@H](Cc2c[nH]c3ccccc23)NC(=O)[C@@H](CC(C)C)NC(=O)[C@H](Cc2c[nH]c3ccccc23)NC1=O) [10-residue cyclic peptide forming 10 Å pores that transport glucose]”, the “apparent rate constant of glucose transport” value is, setting by setting: (liposomes with initial glucose concentration 50 mM) 0.18±0.02 mol(glucose)/mol(peptide)/min^−1; (liposomes with initial glucose concentration 100 mM) 0.48±0.05 mol(glucose)/mol(peptide)/min^−1; (liposomes with initial glucose concentration 150 mM) 0.74±0.1 mol(glucose)/mol(peptide)/min^−1; (liposomes with initial glucose concentration 200 mM) 1.2±0.09 mol(glucose)/mol(peptide)/min^−1.

Regarding “cyclo[-(Trp-D-Leu)3-Gln-D-Leu-] (cyclo(W[dL]W[dL]W[dL]Q[dL]); SMILES CC(C)C[C@H]1NC(=O)[C@H](CCC(N)=O)NC(=O)[C@@H](CC(C)C)NC(=O)[C@H](Cc2c[nH]c3ccccc23)NC(=O)[C@@H](CC(C)C)NC(=O)[C@H](Cc2c[nH]c3ccccc23)NC(=O)[C@@H](CC(C)C)NC(=O)[C@H](Cc2c[nH]c3ccccc23)NC1=O) [eight residue ion channel forming cyclic peptide, approximately 7.5 Å pore]”, where the note is “sentence reads 'neither ... nor ... display any glucose transport activity' = none”, the “display any glucose transport activity under similar assay conditions” value is listed as “nor”.
